In article PMC10518020, “Structure of the peroxisomal Pex1/Pex6 ATPase complex bound to a substrate” (Nature Communications, 2023):

Target: T1, Pex1/Pex6_WB (Pex1-Strep2/His-Pex6(E832Q)) heterohexamer (Saccharomyces cerevisiae, UniProt P24004+P33760, P33760:E832Q)
T1 construct: full-length Pex1 with C-terminal Strep2 tag and Pex6(E832Q, D2 Walker B) with N-terminal His tag, co-expressed in S. cerevisiae MH 272/3f alpha; heterohexamer of alternating Pex1 and Pex6 (trimer of dimers); endogenous peptide trapped in D2 pore
T1 sequence (P24004 1-1043): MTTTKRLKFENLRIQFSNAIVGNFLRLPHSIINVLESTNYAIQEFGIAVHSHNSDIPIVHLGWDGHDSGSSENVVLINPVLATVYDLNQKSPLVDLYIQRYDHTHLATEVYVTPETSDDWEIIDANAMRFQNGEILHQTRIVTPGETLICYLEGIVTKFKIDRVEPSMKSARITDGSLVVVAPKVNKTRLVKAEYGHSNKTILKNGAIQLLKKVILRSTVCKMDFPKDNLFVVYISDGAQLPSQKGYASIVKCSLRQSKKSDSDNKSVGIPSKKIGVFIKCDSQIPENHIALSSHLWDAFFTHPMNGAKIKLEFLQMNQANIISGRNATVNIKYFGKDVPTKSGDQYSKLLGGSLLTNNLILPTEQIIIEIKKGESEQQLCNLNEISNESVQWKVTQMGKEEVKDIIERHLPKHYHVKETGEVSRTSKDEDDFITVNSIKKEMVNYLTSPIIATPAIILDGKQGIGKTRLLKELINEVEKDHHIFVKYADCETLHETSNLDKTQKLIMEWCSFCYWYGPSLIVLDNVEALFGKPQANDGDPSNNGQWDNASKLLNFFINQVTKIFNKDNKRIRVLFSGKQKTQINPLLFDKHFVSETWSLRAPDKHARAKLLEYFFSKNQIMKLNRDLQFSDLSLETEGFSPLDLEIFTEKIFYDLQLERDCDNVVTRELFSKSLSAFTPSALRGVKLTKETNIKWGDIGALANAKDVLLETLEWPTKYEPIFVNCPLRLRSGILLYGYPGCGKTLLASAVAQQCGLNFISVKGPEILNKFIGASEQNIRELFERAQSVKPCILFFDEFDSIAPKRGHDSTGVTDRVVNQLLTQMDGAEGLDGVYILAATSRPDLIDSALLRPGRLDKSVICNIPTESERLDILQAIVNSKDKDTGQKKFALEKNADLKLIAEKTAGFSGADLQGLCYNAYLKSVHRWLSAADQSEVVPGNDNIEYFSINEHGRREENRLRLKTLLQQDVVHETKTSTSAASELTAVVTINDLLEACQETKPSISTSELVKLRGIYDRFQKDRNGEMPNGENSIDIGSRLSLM
T1 sequence (P33760 1-1030 E832Q): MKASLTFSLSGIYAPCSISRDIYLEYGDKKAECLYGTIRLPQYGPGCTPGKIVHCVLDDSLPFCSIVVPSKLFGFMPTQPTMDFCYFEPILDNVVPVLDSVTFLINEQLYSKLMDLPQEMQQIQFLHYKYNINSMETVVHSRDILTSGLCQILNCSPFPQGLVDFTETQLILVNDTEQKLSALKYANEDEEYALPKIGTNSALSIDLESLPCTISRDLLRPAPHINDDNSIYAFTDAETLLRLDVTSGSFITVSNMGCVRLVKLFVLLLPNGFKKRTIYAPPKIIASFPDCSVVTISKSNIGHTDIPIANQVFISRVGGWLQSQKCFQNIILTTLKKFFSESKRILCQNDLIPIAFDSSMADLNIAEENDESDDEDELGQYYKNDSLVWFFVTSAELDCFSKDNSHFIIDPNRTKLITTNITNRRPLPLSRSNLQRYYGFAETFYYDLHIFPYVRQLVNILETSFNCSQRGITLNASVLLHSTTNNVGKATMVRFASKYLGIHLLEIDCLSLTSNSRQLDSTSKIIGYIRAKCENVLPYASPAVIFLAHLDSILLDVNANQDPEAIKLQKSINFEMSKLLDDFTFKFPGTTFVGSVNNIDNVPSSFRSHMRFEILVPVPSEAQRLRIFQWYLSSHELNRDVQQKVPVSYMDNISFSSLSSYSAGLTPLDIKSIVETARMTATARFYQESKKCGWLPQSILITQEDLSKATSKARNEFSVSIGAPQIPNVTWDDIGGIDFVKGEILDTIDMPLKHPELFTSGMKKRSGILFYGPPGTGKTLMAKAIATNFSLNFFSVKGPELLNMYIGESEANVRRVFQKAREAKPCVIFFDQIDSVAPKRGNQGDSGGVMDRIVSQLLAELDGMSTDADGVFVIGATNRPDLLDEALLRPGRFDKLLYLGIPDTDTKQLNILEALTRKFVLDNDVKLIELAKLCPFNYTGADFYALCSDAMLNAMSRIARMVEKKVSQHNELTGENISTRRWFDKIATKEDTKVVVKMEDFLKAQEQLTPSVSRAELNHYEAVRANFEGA
Experiment: cryo-EM structure
Type: binding

SMILES | cryo-EM structure (D2 sites of bottom and seam subunits, nucleotide assigned from density and pocket opening, not with absolute confidence, no ADP added (ATP in purification)) | cryo-EM structure (Mg2+, 1-3 mM ATP in purification, bound at all six D1 sites (not hydrolysed) and at D2 sites of the substrate-engaged subunits, single-seam 8C0V and twin-seam 8C0W)
Nc1ncnc2c1ncn2[C@@H]1O[C@H](COP(=O)(O)OP(=O)(O)O)[C@@H](O)[C@H]1O [ADP] | D2 domains are indeed in an ADP-bound state | –
Nc1ncnc2c1ncn2[C@@H]1O[C@H](COP(=O)(O)OP(=O)(O)OP(=O)(O)O)[C@@H](O)[C@H]1O [ATP] | – | all ATPase domains of the D1 ring are bound to ATP
